Assay results as given in patent publication US20090023700A1, “NEUROPROTECTIVE TREATMENTS” (University of Louisville Research Foundation, priority 2007, published 2009).

What was measured:
[1] = Observation of overall health status, general behavior and grooming; format: in vivo, rat; conditions: any of the bpV(phen)- and PBS-treated groups
Protocol: Whether bpV(phen) might have detrimental side effects, such as inducing pain at the level of the injury, was tested. Severe spinal cord injury can induce hypersensitivity and mechanical allodynia (a painful response to a nonpainful tactile skin stimulus) at the level of injury. […] Differences between any of the bpV(phen)- and PBS-treated groups in the overall health status, general behavior, and grooming of the rats were not observed.

Iba1 = Iba1 immunostaining (microglial/macrophage activation) after T9 contusion; format: in vivo, rat; conditions: 7 d infusion started 4 h after injury
Protocol: Inflammation is a major contributor to white matter loss after spinal cord injury. Therefore, to find a potential mechanism for the axon- and myelin-protective effects of bpV(phen), its effects on Iba1 immunostaining were measured as a marker for microglial/macrophage activation and inflammation. […] Whereas, PBS-infused rats had clear infiltrates of activated macrophages, those infused with bpV(phen) had predominantly […] microglial cells. […] The extent of white matter loss in the dorsal column at the epicenter correlated to the extent of microglia/macrophage activation at the epicenter (FIG. 8B). The extent of inflammation 1 mm rostral to the injury correlated with the loss of CTB-labeled sensory projections in the gracile nucleus (FIG. 8C) but not with that seen at the epicenter (p=0.3) or caudal to the lesion (p=0.57). […] Conversely, the possibility that bpV(phen) affected inflammation at other times over the 7 d period cannot be excluded.
Anterogradely labeled sensory fibers and terminals were visualized in every third section through both gracile nuclei by DAB-based immunostaining for CTB as described previously (Baker et al. (2007) Exp Neurol 205:82-91). The lumbar sections were stained to ensure that the CTB injections were successful as evidenced by traced afferents and motor neurons. […] The epicenter of maximal injury was determined by the rostrocaudal level with the least amount of spared white matter per transverse section. […]
Quantitative measurements and statistics. The extent of sensory innervation of the gracile nucleus was determined by measuring the CTB-labeled terminal fiber area in every third section as described previously (Baker et al. (2007) Exp Neurol 205:82-91). In short, images of every third section through the right and left gracile nuclei were analyzed using the density slice feature of the Scion Image software. […] Images of EC-stained sections were captured, and the positive areas were measured with Scion Image. […]

Structure (SMILES): O.O.O.OO.OO.[K+].[OH-].[V].c1cnc2c(c1)ccc1cccnc12 [bpV(phen), potassium bisperoxo(1,10-phenanthroline)oxovanadate (V)]
- differences versus PBS groups in overall health status, general behavior and grooming [1]: not observed
- area of Iba1-immunostained structures (Iba1; 1 mm caudal to epicenter, p=0.49): no difference
- area of Iba1-immunostained structures (Iba1; 1 mm rostral to epicenter, p<0.005): significantly reduced
- area of Iba1-immunostained structures (Iba1; at the epicenter, p=0.053): trend of a reduction
